In patent US9682054B2, “Medium-chain length fatty acids, glycerides and analogues as stimulators of erythropoiesis” (PROMETIC PHARMA SMT LIMITED, priority 2003, dated 2017):
Entries after “also recorded” stand apart in the source; their conditions may differ. Like-named read-outs stand apart in the source and are kept apart here.

How the values were obtained:
[1] = system: bone marrow from the femur; conditions: for Gross pathological observations: Bone Marrow Color: femur at day +5; for appearance of the femur (bone marrow): immunosuppression induced by 5-fluorouracil (5-FU) 80 mg/kg i.v., compared with the cyclophosphamide results (red femur)
Experimental: Female C57BL/6 mice, 6 to 8 week old, were immunosuppressed by treatment with 200 mg/kg of cyclophosphamide (CY) or 80 mg/kg 5-fluorouracil (5-FU) administered intravenously at day 0. To examine the immunoprotective effect of MCT or other compounds, mice were pre-treated orally at day −3, −2 and −1 at day 0 with the compound. Mice were sacrificed at day +5 by cardiac puncture and cervical dislocation. Then, a gross pathological observation of the femurs (as a source of bone marrow cells) was recorded.

spleen red cell = test: Chemoprotection study: spleen red cell count in cyclophosphamide treated mice; format: in vivo, C57BL/6 mice
From the text: Effect of tricaprin, capric acid and sodium caprate on in vivo induction of immune cell proliferation or protection was undertaken following the protocol described in example 1. After the sacrifice, tissues were crushed in PBS buffer and cells were counted on a hemacytometer. Effect of oral and intravenous administration of sodium caprate on in vivo induction of immune cell proliferation or protection was undertaken following the protocol described in example 1. After sacrifice, tissues were crushed in PBS buffer and cells were counted on a hemacytometer.

bone marrow cells = test: Anemia model: ex vivo bone marrow colony forming unit (CFU) formation assay; format: in vivo, BALB/c mice; conditions: i.v. pre-treatment
Experimental: To examine the immunoprotective or immunorestorative effect of sodium caprate in an anemia model, BALB/c mice were pre-treated intravenously at day −3, −2 and −1 with compound. Anemia was induced by treatment with 60 mg/kg phenylhydrazine administered intraperitonealy at day 0 to female BALB/c mice, 6 to 8 week old. Mice were sacrificed at day +6 by cardiac puncture and cervical dislocation. Then, bone marrow cells were obtained from femur. Cells were flushed and washed with PBS. Based on the viable cells count, the cells were resuspended at a concentration of 5×10^5 cells per ml in IMDM media supplemented with 2% FBS. From these cells, two replicates of 3×10^4 cells per dish were plated in Methocult medium so that a colony forming unit (CFU) formation assay could be undertaken. CFU-E and BFU-E were recorded after 2 to 3 days culture. CFU-GM and CFU-GEMM were recorded after 14 to 16 days culture.

peripheral blood cell = test: Chemoprotection study: number of peripheral blood cell; format: in vivo, C57BL/6 mice; conditions: sodium caprate used alone
From the text: (§1) Effect of oral and intravenous administration of sodium caprate and GM-CSF on in vivo induction of immune cell proliferation or protection was undertaken following the protocol described in example 1. After sacrifice, tissues were crushed in PBS buffer and cells were counted on a hemacytometer.

bone marrow red cell = test: Chemoprotection study: bone marrow red cell count in cyclophosphamide treated mice, comparison with GM-CSF; format: in vivo, C57BL/6 mice
From the text: as §1

human bone marrow cells = test: In vitro human bone marrow cell proliferation ([3H]-thymidine incorporation); format: cell-based
Experimental: Bone marrow cells were obtained from the sternum of cancer patients. Cells were washed with PBS and resuspended at a concentration of 2×10^6 cells per ml. Cells were cultured in RPMI/FBS media in the presence or the absence of tricaprin or tricaprylin for 48 and 72 hours at 37° C. After incubation, cells were pulsed with 1 μCi of [^3H]-thymidine for 6 hours. Plates were harvested on a Tomteck and counted on a Microbeta β-counter. Incorporation of [^3H]-thymidine in the DNA is a direct indication of the cell proliferation.

[2] = system: human hematopoietic progenitors; test: In vitro human bone marrow colony forming unit (CFU) formation assay; format: cell-based; conditions: for BFU-E / CFU-GEMM / CFU-GM / TOTAL CFC (Colony Forming Cells): tricaprin 10%; for increase in BFU-E colonies formation / increase in the number of CFU-GEMM: versus control
Experimental: Bone marrow cells were obtained from the sternum of various cancer patients. Cells were washed with PBS and resuspended at a concentration of 2×10^6 cells per ml. Cells were cultured in RPMI/FBS or Myelocult (Stem cell technology, Vancouver)/FBS media in the presence or the absence of tricaprin for 5 days at 37° C. After incubation, cells were harvested, washed and counted. Based on the viable cells count, the cells were resuspended at a concentration of 5×10^5 cells per ml in IMDM media supplemented with 2% FBS. From these cells, four replicates of 2.5×10^4 cells per dish were plated in Methocult medium so that a colony forming unit (CFU) formation assay could be undertaken. CFU-GM, CFU-GEMM and BFU-E were recorded after 14 to 16 days culture.

[3] = cyclophosphamide (CY) 200 mg/kg i.v. day 0 plus compound given orally as pre-treatment
[4] = normal mice, bone marrow cells in Methocult
[5] = phenylhydrazine-induced anemia mice (60 mg/kg i.p.)
[6] = single agent (GM-CSF at high concentration, 1 μg/kg)
[7] = Myelocult/FBS medium, Experiment 1
[8] = Myelocult/FBS medium, Experiment 2

Compound: O=P1(N(CCCl)CCCl)NCCCO1 (stereo not shown) [CY, cyclophosphamide, reference compound]
- Gross pathological observations: Bone Marrow Color ([1]; cyclophosphamide (CY) 200 mg/kg i.v. day 0 alone): White, almost translucent

Compound: CCCCCCCCCC(=O)O [capric acid]
- spleen red cell count (spleen red cell; oral pre-treatment): significant increase
- Gross pathological observations: Bone Marrow Color [1, 3]: Red
- appearance of the femur (bone marrow) [1]: same results

Compound: CCCCCCCCCC(=O)[O-].[Na+] [sodium caprate]
- spleen red cell count (spleen red cell; intravenous pre-treatment): significant increase; also recorded: increases the spleen red cell counts to the baseline level of control mice
- spleen red cell count (spleen red cell; oral pre-treatment): significant increase
- Gross pathological observations: Bone Marrow Color [1, 3]: Red
- appearance of the femur (bone marrow) [1]: same results
- number of CFU-E (bone marrow cells; [4]): enhances
- number of CFU-GEMM (bone marrow cells; [4]): enhances
- CFU-E (bone marrow cells; [5]): strong increase
- CFU-GEMM (bone marrow cells; [5]): strong increase
- CFU-GM (bone marrow cells; [5]): strong increase
- number of peripheral blood cell (peripheral blood cell): significant increase
- bone marrow red cell count (bone marrow red cell; in combination with GM-CSF): additive increase
- bone marrow red cell count (bone marrow red cell; [6]): significant increase

Compound: CCCCCCCCCC(=O)OCC(COC(=O)CCCCCCCCC)OC(=O)CCCCCCCCC [tricaprin]
- bone marrow proliferation in combination with erythropoietin (EPO) (human bone marrow cells; 48 hours): additive
- bone marrow proliferation in combination with erythropoietin (EPO) (human bone marrow cells; 72 hours): synergistic
- spleen red cell count (spleen red cell; oral pre-treatment): significant increase
- Gross pathological observations: Bone Marrow Color [1, 3]: Red
- appearance of the femur (bone marrow) [1]: same results
- BFU-E [2, 7]: 380
- CFU-GEMM [2, 7]: 4.75
- CFU-GM [2, 7]: 17
- TOTAL CFC (Colony Forming Cells) [2, 7]: 401
- BFU-E [2, 8]: 268
- CFU-GEMM [2, 8]: 4.25
- CFU-GM [2, 8]: 34
- TOTAL CFC (Colony Forming Cells) [2, 8]: 306
- increase in BFU-E colonies formation ([2]; Myelocult/FBS medium): up to 6 times
- increase in the number of CFU-GEMM ([2]; Myelocult/FBS medium): up to 2 times
- BFU-E ([2]; RPMI/FBS medium, Experiment 1): 130
- CFU-GEMM ([2]; RPMI/FBS medium, Experiment 1): 4.75
- CFU-GM ([2]; RPMI/FBS medium, Experiment 1): 26
- TOTAL CFC (Colony Forming Cells) ([2]; RPMI/FBS medium, Experiment 1): 161
- BFU-E ([2]; RPMI/FBS medium, Experiment 2): 121
- CFU-GEMM ([2]; RPMI/FBS medium, Experiment 2): 4
- CFU-GM ([2]; RPMI/FBS medium, Experiment 2): 25
- TOTAL CFC (Colony Forming Cells) ([2]; RPMI/FBS medium, Experiment 2): 150
- increase in BFU-E colonies formation ([2]; RPMI/FBS medium): up to 13 times
- increase in the number of CFU-GEMM ([2]; RPMI/FBS medium): up to 3 times

Compound: CCCCCCCC(=O)OCC(COC(=O)CCCCCCC)OC(=O)CCCCCCC [tricaprylin]
- bone marrow proliferation in combination with erythropoietin (EPO) (human bone marrow cells; time not stated): synergistic increase
- increase in bone marrow proliferation relative to the control (human bone marrow cells; human bone marrow cells, RPMI/FBS, 48 and 72 hours, [3H]-thymidine): 2 fold
- Gross pathological observations: Bone Marrow Color [1, 3]: Red
- appearance of the femur (bone marrow) [1]: same results

Compound: GM-CSF: GM-CSF, comparator growth factor used at 1 μg/kg
- bone marrow red cell count (bone marrow red cell; [6]): significant increase
